pIC50: −log10 of the molar value. Some results are limits rather than exact numbers.

One test has as its target FGFR2 (Homo sapiens (Human), UniProt P21802). Kind of test: FGFR2 Biochemical Caliper Assay. As for the experimental part: Compounds of the present invention were also tested in a FGFR2 Biochemical Caliper Assay. Compounds were prepared in 10 mM DMSO solution and serially diluted into 11 concentrations by 3-fold dilution. […] 5 uL of ATP solution (100 uM) was added to start the reaction and the plate was incubated for 90 minutes, then 70 uL of stopping buffer (0.5M EDTA) was added to terminate the reaction. Each well was analyzed using EZ reader.

For another test, the system named is SNU16 cells. Kind of test: SNU16 Cancer Cell Line Proliferation Assay. The format is cell-based. The settings on record: Homo sapiens; SNU-16 cells. Summed up:
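Proliferation read-out: CellTiter Glo chemiluminescence after 96 h compound exposure. Test compounds, serially diluted 3-fold over 11 points from a 10 mM DMSO stock, were added to SNU16 cells plated 24 h earlier at 37 degrees.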

Sequence of FGFR2 (P21802 22-821): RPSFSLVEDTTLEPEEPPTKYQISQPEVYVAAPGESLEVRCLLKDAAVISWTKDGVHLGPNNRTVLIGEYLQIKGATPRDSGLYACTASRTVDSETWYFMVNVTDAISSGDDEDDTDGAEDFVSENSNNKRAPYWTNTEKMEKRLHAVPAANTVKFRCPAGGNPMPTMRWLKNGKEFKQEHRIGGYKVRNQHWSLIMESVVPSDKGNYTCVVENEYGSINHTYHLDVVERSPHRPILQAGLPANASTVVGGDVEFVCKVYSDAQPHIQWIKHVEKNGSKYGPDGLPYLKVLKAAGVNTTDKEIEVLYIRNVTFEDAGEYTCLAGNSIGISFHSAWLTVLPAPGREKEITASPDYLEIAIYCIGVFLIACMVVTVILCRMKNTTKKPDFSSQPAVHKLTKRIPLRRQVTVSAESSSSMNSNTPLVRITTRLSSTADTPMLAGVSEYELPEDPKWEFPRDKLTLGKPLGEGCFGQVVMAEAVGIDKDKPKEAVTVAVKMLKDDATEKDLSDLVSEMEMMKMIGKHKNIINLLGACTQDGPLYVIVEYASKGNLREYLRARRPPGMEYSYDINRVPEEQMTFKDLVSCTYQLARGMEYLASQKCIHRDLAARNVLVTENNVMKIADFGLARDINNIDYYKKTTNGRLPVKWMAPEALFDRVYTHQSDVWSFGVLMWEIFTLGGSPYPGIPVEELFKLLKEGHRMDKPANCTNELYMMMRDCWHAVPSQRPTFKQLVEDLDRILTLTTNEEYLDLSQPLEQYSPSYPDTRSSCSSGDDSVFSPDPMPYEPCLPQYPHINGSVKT

What is called pIC50 is −log10 of the IC50, conventionally taken in molar units. A high value points to a small IC50. For `C=CC(=O)N1CCC(c2c(-c3ccc(NC(=O)NC4CC4)cc3)c3c(N)ncnc3n2C)C1` (centres unmarked) [Example 755], the pIC50 on FGFR2 is greater than 7.00; in the test with SNU16 cells it was 4.00 to 6.00.

Turning to `C=CC(=O)Nc1ccc(-c2c(-c3ccc(Oc4ncccn4)c(CC)c3)c3c(N)ncnc3n2C)cc1` [Example 48], the pIC50 at FGFR2 was greater than 7.00; in the test on SNU16 cells, no less than 7.00.

For `C=C(C)C(=O)Nc1ccc(-c2c(-c3ccc(Oc4ncccn4)c(OC)c3)c3c(N)ncnc3n2C)cc1` [Example 36], the negative logarithm of the IC50 (pIC50) against FGFR2 is 6.00 to 6.60; in the test with SNU16 cells it was 6.60 to 7.00.

Take `C=CC(=O)N1CCC(c2c(-c3ccc(Cn4cccn4)cc3)c3c(N)ncnc3n2C)C1` (centres unmarked) [Example 772]: the negative-log IC50 (pIC50) at FGFR2 is greater than 7.00; with SNU16 cells, no less than 7.00.

Take `C=C(C)C(=O)Nc1ccc(-c2c(-c3ccc(Oc4nccc(COC)n4)c(F)c3)c3c(N)ncnc3n2C)cc1` [Example 511]: the pIC50 against FGFR2 was greater than 7.00; in the test with SNU16 cells, no less than 7.00.

Take `C=CC(=O)N1CCC(c2c(-c3ccc(Oc4ccccn4)c(OC)c3)c3c(N)ncnc3n2C)C1` (centres unmarked) [Example 675]: the pIC50 on FGFR2 was 6.00 to 6.60; in the test with SNU16 cells, 4.00 to 6.00.

In the case of `C=C(C)C(=O)Nc1ccc(-c2c(-c3ccc(C(=O)N4CCCC4)cc3F)c3c(N)ncnc3n2C)cc1` [Example 537], the negative logarithm of the IC50 (pIC50) was 6.60 to 7.00 against FGFR2 and no less than 7.00 with SNU16 cells.

`C=C(C)C(=O)Nc1ccc(-c2c(-c3ccc(Cn4ccc(C)n4)cc3)c3c(N)ncnc3n2C)cc1` [Example 274]: the negative-log IC50 (pIC50) was 6.60 to 7.00 against FGFR2 and 6.00 to 6.60 in the test with SNU16 cells.

Turning to `C=C(C)C(=O)Nc1ccc(-c2c(-c3ccc(OC4CCCC4)cc3)c3c(N)ncnc3n2C)cc1` [Example 223], the negative-log IC50 (pIC50) at FGFR2 was greater than 7.00; in the test with SNU16 cells, no less than 7.00.

`C=CC(=O)N1CC=C(c2c(-c3ccc(Oc4cncc(C)c4)c(OC)c3)c3c(N)ncnc3n2C)CC1` [Example 678]: the negative logarithm of the IC50 (pIC50) against FGFR2 is greater than 7.00; in the test with SNU16 cells, 6.60 to 7.00.

For `C=C(C)C(=O)Nc1ccc(-c2c(-c3ccc(C(=O)Nc4ncon4)cc3)c3c(N)ncnc3n2C)cc1` [Example 295], the figures for the negative logarithm of the IC50 (pIC50) on FGFR2 and in the test with SNU16 cells were 4.00 to 6.00 and 6.00 to 6.60, respectively.

Consider `C=C(C)C(=O)Nc1ccc(-c2[nH]c3ncnc(N)c3c2-c2ccc(Oc3cccc(C)n3)cc2)cc1` [Example 703], for which the negative-log IC50 (pIC50) on FGFR2 is greater than 7.00; with SNU16 cells, no less than 7.00.

Turning to `C=CC(=O)Nc1ccc(-c2c(-c3ccc(Oc4ncccn4)c(OC(F)(F)F)c3)c3c(N)ncnc3n2C)cc1` [Example 53], the pIC50 was greater than 7.00 against FGFR2 and no less than 7.00 in the test on SNU16 cells.

Regarding `C=CC(=O)N1CCC(c2c(-c3ccc(Cn4ccccc4=O)cc3)c3c(N)ncnc3n2C)C1` (centres unmarked) [Example 794], the negative-log IC50 (pIC50) on FGFR2 and in the test on SNU16 cells was 4.00 to 6.00 each time.

With `C=C(C)C(=O)Nc1ccc(-c2c(C3=CC[C@@H](C(=O)N4CCC[C@H]4C#N)CC3)c3c(N)ncnc3n2C)cc1` (single isomer, unassigned) [Example 582], the pIC50 was greater than 7.00 against FGFR2 and no less than 7.00 in the test on SNU16 cells.

With `C=C(C)C(=O)Nc1ccc(-c2c(-c3ccc(Oc4nccc(C)n4)c(C)c3)c3c(N)ncnc3n2C)cc1` [Example 484], the negative-log IC50 (pIC50) against FGFR2 is greater than 7.00; in the test on SNU16 cells it was no less than 7.00.

In the case of `C=C(C)C(=O)Nc1ccc(-c2c(-c3ccc(C(=O)NCC4CCOC4)cc3)c3c(N)ncnc3n2C)cc1` (centres unmarked) [Example 362], the pIC50 against FGFR2 is greater than 7.00; with SNU16 cells, 6.00 to 6.60.

In the case of `C=C(C)C(=O)Nc1ccc(-c2c(-c3ccc(C(=O)N4CCCCC4COC)cc3)c3c(N)ncnc3n2C)cc1` (centres unmarked) [Example 369], the results for the pIC50 on FGFR2 and with SNU16 cells were greater than 7.00 and no less than 7.00, respectively.

`C=CC(=O)N1CCC(c2c(-c3cnn(C4CCOC4)c3)c3c(N)ncnc3n2C)C1` (centres unmarked) [Example 736]: the negative logarithm of the IC50 (pIC50) on FGFR2 and in the test on SNU16 cells was 4.00 to 6.00 throughout.

Turning to `C/C=C/C(=O)Nc1ccc(-c2c(-c3ccc(Oc4cccc(C)n4)c(OC)c3)c3c(N)ncnc3n2C)cc1` [Example 31], the negative-log IC50 (pIC50) is greater than 7.00 against FGFR2 and no less than 7.00 in the test on SNU16 cells.

`C=C(C)C(=O)Nc1ccc(-c2c(-c3ccc(C(=O)NCC4CCC4)c(F)c3)c3c(N)ncnc3n2C)nc1` [Example 589]: the negative-log IC50 (pIC50) was greater than 7.00 against FGFR2 and no less than 7.00 with SNU16 cells.

Consider `C=C(C)C(=O)Nc1ccc(-c2c(-c3ccc(C(=O)NC4CCCC4)cc3)c3c(N)ncnc3n2C)cc1` [Example 212], for which the negative-log IC50 (pIC50) was greater than 7.00 at FGFR2 and no less than 7.00 with SNU16 cells.

Consider `C[C@H](Cl)C(=O)Nc1ccc(-c2c(-c3ccc(C(=O)N4CCCC4)cc3)c3c(N)ncnc3n2C)cc1` (single isomer, unassigned) [Example 560], for which the pIC50 on FGFR2 and in the test on SNU16 cells was 6.60 to 7.00 in each case.

For the molecule `C=CC(=O)N1CCC(c2c(-c3ccc(Oc4ncccn4)cc3)c3c(N)ncnc3n2C2CC(O)C2)C1` (centres unmarked) [Example 714], the pIC50 against FGFR2 was greater than 7.00; in the test with SNU16 cells it was no less than 7.00.

Turning to `C=C(C)C(=O)Nc1ccc(-c2c(-c3ccc(Oc4ncc(C)cn4)c(F)c3)c3c(N)ncnc3n2C)cc1` [Example 96], the pIC50 is greater than 7.00 against FGFR2 and no less than 7.00 in the test with SNU16 cells.

As to `C=CC(=O)N1CCC(n2cc(-c3c(-c4ccc(Oc5cnccn5)cc4)c4c(N)ncnc4n3C)cn2)CC1` [Example 642], the pIC50 at FGFR2 was 6.00 to 6.60; with SNU16 cells, 6.60 to 7.00.

For the molecule `C=CC(=O)Nc1ccc(-c2c(-c3ccc(Cn4nc(C)cc4C)cc3)c3c(N)ncnc3n2C)cc1` [Example 260], the negative-log IC50 (pIC50) against FGFR2 was greater than 7.00; with SNU16 cells, no less than 7.00.

`C=C(C)C(=O)Nc1ccc(-c2c(-c3ccc(S(=O)(=O)N(C)C4CCCC4)cc3)c3c(N)ncnc3n2C)cc1` [Example 312]: the pIC50 at FGFR2 and in the test on SNU16 cells was 6.00 to 6.60 each time.

`C/C=C/C(=O)N1CCC(n2cc(-c3c(-c4ccc(Oc5cccc(C)n5)cc4)c4c(N)ncnc4n3C)cn2)CC1` [Example 649]: the pIC50 at FGFR2 is 6.60 to 7.00; with SNU16 cells, 6.00 to 6.60.

As for `C=C(C)C(=O)Nc1ccc(-c2c(-c3ccc(Oc4nccc(C)n4)cc3F)c3c(N)ncnc3n2C)c(F)c1` [Example 543], the pIC50 against FGFR2 is greater than 7.00; in the test with SNU16 cells it was no less than 7.00.

Take `C=C(C)C(=O)Nc1ccc(-c2c(-c3ccc(CN4CCOCC4=O)cc3)c3c(N)ncnc3n2C)cc1` [Example 188]: the negative-log IC50 (pIC50) at FGFR2 is 4.00 to 6.00; with SNU16 cells, 6.00 to 6.60.

For `C=C(C)C(=O)Nc1ccc(-c2c(-c3ccc(C(=O)N(C)Cc4nc(C)no4)cc3)c3c(N)ncnc3n2C)cc1` [Example 270], the pIC50 against FGFR2 and with SNU16 cells was 6.00 to 6.60 each time.

For the molecule `C=CC(=O)N1CCC(c2c(-c3ccc(-c4cnn(C)c4)cc3)c3c(N)ncnc3n2C)C1` (centres unmarked) [Example 766], the pIC50 against FGFR2 and in the test on SNU16 cells was 6.00 to 6.60 each time.

For `C=CC(=O)N1CCC(c2c(-c3ccc(C(=O)c4ccccc4)cc3)c3c(N)ncnc3n2C)C1` (centres unmarked) [Example 760], the negative logarithm of the IC50 (pIC50) against FGFR2 is greater than 7.00; with SNU16 cells, no less than 7.00.

For `C=C(C)C(=O)N1CC=C(c2c(-c3ccc(Oc4ncccn4)cc3)c3c(N)ncnc3n2C)C1` [Example 688], the negative-log IC50 (pIC50) at FGFR2 and in the test on SNU16 cells was 4.00 to 6.00 in each case.

Regarding `C=C(C)C(=O)Nc1ccc(-c2c(-c3ccc(C(=O)N4CC5CCC4CO5)cc3)c3c(N)ncnc3n2C)cc1` (centres unmarked) [Example 238], the negative logarithm of the IC50 (pIC50) at FGFR2 and in the test on SNU16 cells was 6.00 to 6.60 each time.

Take `C=CC(=O)N1CCC(c2[nH]c3ncnc(N)c3c2-c2ccc(Oc3cccc(C)n3)cc2)C1` (centres unmarked) [Example 744]: the results for the pIC50 against FGFR2 and with SNU16 cells were greater than 7.00 and no less than 7.00, respectively.
